Measured values: patent US20240293392A1, “INHIBITOR COMPOUNDS” (NeoPhore Limited, priority 2021, published 2024)
Structures can show the parent of a compound that is named as a salt.

Tests used:
[1] = molecular target: T1, recombinant N-terminal PMS2 (residues 1-365) (Homo sapiens, UniProt P54278); assay: Fluorescence Polarisation Assay for PMS2; assay type: binding; settings: fluorescence polarisation probe displacement; 10 nM N-terminal PMS2, 5 nM probe compound; read-out: PMS2 IC50
T1 construct: recombinant N-terminal PMS2 (residues 1-365)
T1 sequence (P54278 1-365): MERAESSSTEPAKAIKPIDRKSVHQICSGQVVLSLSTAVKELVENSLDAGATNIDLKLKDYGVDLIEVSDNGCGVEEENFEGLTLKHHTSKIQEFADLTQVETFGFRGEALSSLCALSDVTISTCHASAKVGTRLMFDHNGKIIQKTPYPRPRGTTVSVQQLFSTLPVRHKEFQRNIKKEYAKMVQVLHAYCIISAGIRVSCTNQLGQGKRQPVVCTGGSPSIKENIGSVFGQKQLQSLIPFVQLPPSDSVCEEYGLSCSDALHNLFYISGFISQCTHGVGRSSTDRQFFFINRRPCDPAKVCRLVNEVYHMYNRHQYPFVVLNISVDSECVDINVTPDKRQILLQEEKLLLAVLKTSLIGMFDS
Protocol: Fluorescence Polarisation Assay for PMS2
For single point screening, test compounds were added to wells in columns 1-22 whilst DMSO was added to wells in columns 23 and 24 in order to normalise the plate. For potency determination, serial dilutions of test compounds were added to wells in columns 3-22 and DMSO volume was normalised across the plate.
20 μL assay buffer was added to all wells in columns 1 and 24 (column 24 only for single point screening) using a MultiDrop Combi (ThermoFisher). Plates were centrifuged for 1 minute at 250×g and were incubated at room temperature for 30 minutes prior to the addition of 20 μL of 2× (20 nM) of 5-((5-(4-((2-(2,4-dihydroxy-5-isopropylbenzoyl)isoindolin-5-yl)methyl)piperazin-1-yl)pentyl)carbamoyl)-2-(6-(dimethylamino)-3-(dimethyliminio)-3H-xanthen-9-yl)benzoate (referred to hereinafter as “probe compound”) in assay buffer (prepared from a 100 μM DMSO stock) with a MultiDrop Combi (ThermoFisher). The final concentration of N-terminal PMS2 was 10 nM and the final concentration of probe compound was 5 nM.
Compound plates were centrifuged for 1 minute at 250×g for 1 minute and were incubated at room temperature for 1 hour before being read on a PheraStar FSX (fitted with 384-well aperture spoon and 540 590 590 FP optic module). The gain and focus were adjusted before each plate was read so that the polarisation of a no enzyme control (column 24) was equal to 35 mP. Data were normalised against the no inhibitor controls (column 23) and no enzyme controls (column 24).

[2] = molecular target: T2, recombinant N-terminal MLH1 (residues 15-340) (Homo sapiens, UniProt P40692); assay: Fluorescence Polarisation Assay for MLH1; assay type: binding; settings: fluorescence polarisation probe displacement; 100 nM N-terminal MLH1, 5 nM probe compound
T2 construct: recombinant N-terminal MLH1 (residues 15-340)
T2 sequence (P40692 15-340): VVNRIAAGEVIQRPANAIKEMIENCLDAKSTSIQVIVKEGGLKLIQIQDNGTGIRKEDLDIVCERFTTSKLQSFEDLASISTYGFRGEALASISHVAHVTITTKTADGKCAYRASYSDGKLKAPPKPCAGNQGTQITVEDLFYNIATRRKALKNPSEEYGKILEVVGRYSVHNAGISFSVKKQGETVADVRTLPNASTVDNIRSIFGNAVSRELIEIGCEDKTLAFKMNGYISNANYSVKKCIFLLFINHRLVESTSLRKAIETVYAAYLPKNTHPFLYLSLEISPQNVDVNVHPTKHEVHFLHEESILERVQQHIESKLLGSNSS
Protocol: Fluorescence Polarisation Assay for MLH1
Test compounds, as 10 mM DMSO stocks, were dispensed into a 384-well Low Flange Black Flat Bottom Polystyrene Non-binding Surface plate (Corning®, item number 3575) using a Labcyte Echo acoustic liquid handler. Test compounds were added to wells in columns 1-22 whilst DMSO was added to wells in columns 23 and 24 in order to normalise the plate. 20 μL of a 2× solution (200 nM) of recombinant N-terminal MLH1 (residues 15-340) in assay buffer (25 mM HEPES, pH 7.5, 250 mM NaCl, 10 mM MgCl2, 0.01% Triton X-100, 5 mM dithiothreitol) was added to all wells in columns 1-23 and 20 μL assay buffer was added to all wells in column 24 using an E1-ClipTip pipette (ThermoFisher). Plates were centrifuged for 1 minute at 250×g and were incubated at room temperature for 30 minutes prior to the addition of 20 μL of 2× (10 nM) 5-((5-(4-((2-(2,4-dihydroxy-5-isopropylbenzoyl)isoindolin-5-yl)methyl)piperazin-1-yl)pentyl)carbamoyl)-2-(6-(dimethylamino)-3-(dimethyliminio)-3H-xanthen-9-yl)benzoate in assay buffer (prepared from a 1 mM DMSO stock) with an E1-ClipTip pipette (ThermoFisher). The final concentration of N-terminal MLH1 was 100 nM and the final concentration of the probe compound was 5 nM. Compound plates were centrifuged for 1 minute at 250×g for 1 minute and immediately read on a PheraStar FSX (fitted with 384-well aperture spoon and 590 675 675 FP optic module). The gain and focus were adjusted before each plate was read so that the polarisation of a no enzyme control (column 24) was equal to 35 mP. Data were normalised against the no inhibitor controls (column 23) and no enzyme controls (column 24).

SMILES | IC50 [1] | IC50 [2]
O=C(c1c(O)cc(O)cc1OCc1ccccn1)N1CCc2cccc(N[C@@H]3CCOC3)c2C1 [Example 56, (R)-(2,4-dihydroxy-6-(pyridin-2-ylmethoxy)phenyl)(8-((tetrahydrofuran-3-yl)amino)-3,4-dihydroisoquinolin-2(1H)-yl)methanone] | > 10000 nM | < 1000 nM
CN(C)C(=O)c1ccc2c(c1)CN(C(=O)c1c(O)cc(O)cc1OCc1ccccc1)C2 [Example 87, 2-(2-(Benzyloxy)-4,6-dihydroxybenzoyl)-N,N-dimethylisoindoline-5-carboxamide] | < 1000 nM | < 1000 nM
O=C(c1c(O)cc(O)cc1OCc1ccncc1)N1Cc2cccc(NC3CCOC3)c2C1 (stereo not drawn) [Example 97, (2,4-Dihydroxy-6-(pyridin-4-ylmethoxy)phenyl)(4-((tetrahydrofuran-3-yl)amino)isoindolin-2-yl)methanone] | 1000 to 10000 nM | < 1000 nM
COCCOc1cc2c(c(N[C@@H]3CCOC3)c1)CN(C(=O)c1c(O)cc(O)cc1OCc1ccccn1)CC2 [Example 142, (R)-(2,4-Dihydroxy-6-(pyridin-2-ylmethoxy)phenyl)(6-(2-methoxyethoxy)-8-((tetrahydrofuran-3-yl)amino)-3,4-dihydroisoquinolin-2(1H)-yl)methanone] | > 10000 nM | < 1000 nM
CN1CCC(Nc2cccc3c2CN(C(=O)c2c(O)cc(O)cc2OCc2ccccc2)CC3)CC1 [Example 77, (2-(Benzyloxy)-4,6-dihydroxyphenyl)(8-((1-methylpiperidin-4-yl)amino)-3,4-dihydroisoquinolin-2(1H)-yl)methanone] | > 10000 nM | > 10000 nM
O=C(c1c(O)cc(O)cc1OCc1ccccc1)N1Cc2cccc(Nc3cn[nH]c3)c2C1 [Example 34, (4-((1H-Pyrazol-4-yl)amino)isoindolin-2-yl)(2-(benzyloxy)-4,6-dihydroxyphenyl)methanone] | 1000 to 10000 nM | < 1000 nM
COc1cc2c(c(NC3CCOC3)c1)CN(C(=O)c1c(O)cc(O)cc1OCc1ccccc1)CC2 (stereo not drawn) [Example 54, (2-(Benzyloxy)-4,6-dihydroxyphenyl)(6-methoxy-8-((tetrahydrofuran-3-yl)amino)-3,4-dihydroisoquinolin-2(1H)-yl)methanone] | 1000 to 10000 nM | < 1000 nM
COc1cc(O)cc(O)c1C(=O)N1Cc2cccc(NC3CCOC3)c2C1 (stereo not drawn) [Example 16, (2,4-Dihydroxy-6-methoxyphenyl)(4-((tetrahydrofuran-3-yl)amino)isoindolin-2-yl)methanone] | > 10000 nM | 1000 to 10000 nM
CN(C)CCOc1cc2c(c(N[C@@H]3CCOC3)c1)CN(C(=O)c1c(O)cc(O)cc1OCc1ccccc1)CC2 [Example 131, (R)-(2-(Benzyloxy)-4,6-dihydroxyphenyl)(6-(2-(dimethylamino)ethoxy)-8-((tetrahydrofuran-3-yl)amino)-3,4-dihydroisoquinolin-2(1H)-yl)methanone] | 1000 to 10000 nM | < 1000 nM
Cc1c[nH]c(=O)cc1Nc1cccc2c1CN(C(=O)c1c(O)cc(O)cc1OCc1ccccc1)C2 [Example 24, 4-((2-(2-(benzyloxy)-4,6-dihydroxybenzoyl)isoindolin-4-yl)amino)-5-methylpyridin-2(1H)-one] | 1000 to 10000 nM | 1000 to 10000 nM
O=C(c1c(O)cc(O)cc1OCc1ccccc1)N1Cc2cccc(OCC3CNC3)c2C1 [Example 90, (4-(Azetidin-3-ylmethoxy)isoindolin-2-yl)(2-(benzyloxy)-4,6-dihydroxyphenyl) methanone] | 1000 to 10000 nM | 1000 to 10000 nM
NC(=O)c1cccc(Nc2cccc3c2CN(C(=O)c2c(O)cc(O)cc2OCc2ccccc2)CC3)c1 [Example 74, 3-((2-(2-(Benzyloxy)-4,6-dihydroxybenzoyl)-1,2,3,4-tetrahydroisoquinolin-8-yl)amino)benzamide] | > 10000 nM | > 10000 nM
O=C(c1c(O)cc(O)cc1OCc1ccccc1)N1Cc2ccc(CNC3COC3)cc2C1 [Example 144, 2-(Benzyloxy)-4,6-dihydroxyphenyl-(5-((oxetan-3-ylamino)methyl)isoindolin-2-yl)methanone] | < 1000 nM | < 1000 nM

The next lines start with the values.

IC50 [1] | IC50 [2] | SMILES
1000 to 10000 nM | < 1000 nM | NCc1cccc2c1CN(C(=O)c1c(O)cc(O)cc1OCc1ccccc1)C2 [Example 83, (4-(Aminomethyl)isoindolin-2-yl)(2-(benzyloxy)-4,6-dihydroxyphenyl)methanone hydrochloride]
1000 to 10000 nM | < 1000 nM | O=C(c1c(O)cc(O)cc1OCc1ccccc1)N1Cc2cccc(NC3CCCOC3)c2C1 (single isomer, unassigned) [Example 30, (2-(Benzyloxy)-4,6-dihydroxyphenyl)(4-((tetrahydro-2H-pyran-3-yl)amino)isoindolin-2-yl)methanone]
1000 to 10000 nM | 1000 to 10000 nM | O=C(c1c(O)cc(O)cc1OCc1ccccc1)N1CCc2cccc(Nc3cnccn3)c2C1 [Example 119, (2-(Benzyloxy)-4,6-dihydroxyphenyl)(8-(pyrazin-2-ylamino)-3,4-dihydroisoquinolin-2(1H)-yl)methanone]
> 10000 nM | < 1000 nM | CN1CC(Nc2cccc3c2CN(C(=O)c2c(O)cc(O)cc2OCc2ccccc2)CC3)CCC1=O (stereo not drawn) [Example 70, 5-((2-(2-(Benzyloxy)-4,6-dihydroxybenzoyl)-1,2,3,4-tetrahydroisoquinolin-8-yl)amino)-1-methylpiperidin-2-one]
> 10000 nM | 1000 to 10000 nM | CC(=O)N1CCC[C@H](Nc2cccc3c2CN(C(=O)c2c(O)cc(O)cc2OCc2ccccc2)CC3)C1 [Example 67, (S)-1-(3-((2-(2-(Benzyloxy)-4,6-dihydroxybenzoyl)-1,2,3,4-tetrahydroisoquinolin-8-yl)amino)piperidin-1-yl)ethan-1-one]
< 1000 nM | < 1000 nM | CN1CC(Nc2cccc3c2CN(C(=O)c2c(O)cc(O)cc2OCc2ccccc2)CC3)CC1=O (stereo not drawn) [Example 42, 4-((2-(2-(Benzyloxy)-4,6-dihydroxybenzoyl)-1,2,3,4-tetrahydroisoquinolin-8-yl)amino)-1-methylpyrrolidin-2-one]
1000 to 10000 nM | < 1000 nM | Nc1cccc2c1CN(C(=O)c1c(O)cc(O)cc1OCc1ccccc1)C2 [Example 93, (4-Aminoisoindolin-2-yl)(2-(benzyloxy)-4,6-dihydroxyphenyl)methanone]
1000 to 10000 nM | < 1000 nM | CN1CCC(Oc2cc3c(c(N[C@@H]4CCOC4)c2)CN(C(=O)c2c(O)cc(O)cc2OCc2ccccc2)CC3)CC1 [Example 138, (R)-(2-(Benzyloxy)-4,6-dihydroxyphenyl)(6-((1-methylpiperidin-4-yl)oxy)-8-((tetrahydrofuran-3-yl)amino)-3,4-dihydroisoquinolin-2(1H)-yl)methanone]
